Test: Example 11 Period 2: multiple-dose pharmacokinetics (free and total testosterone, dihydrotestosterone, estradiol, SHBG)
Conditions: multi-dose, PK conclusions

C[C@]12CC[C@H]3[C@@H](CCC4=CC(=O)CC[C@@]43C)[C@@H]1CC[C@@H]2O [Testosterone, 17β-Hydroxyandrost-4-en-3-one]
time to return to baseline: 12 to 15 h
